The source of these data is patent US9527869B2, “Indolizine derivatives as phoshoinositide 3-kinases inhibitors” (CHIESI FARMACEUTICI S.P.A., priority 2014, dated 2016).

Common to all, as to type: biochemical
One experiment has as its target T1, PI3Kα (Homo sapiens, UniProt P42336).
T1 construct: purchased Millipore Ltd (Billerica, Mass.)
The experiment can be described thus: In vitro determination of the PI3K enzyme inhibitory activity in the cell free assay (ADP-Glo Kinase Assay), PI3Kα. Particulars: ATP 50 μM, read-out: PI3K alpha inhibition. The method, then: (§1) In vitro Determination of the PI3K Enzyme Inhibitory Activity in the Cell Free Assay
(§2) Human recombinant proteins PI3Kα, PI3Kβ, PI3Kγ and PI3Kδ were purchased from Millipore Ltd (Billerica, Mass.). Compounds were dissolved at 0.5 mM in DMSO and were tested at different concentrations for their activity against PI3Ks using the ADP-Glo™ Kinase Assay (Promega, Madison Wis.) according to the manufacturer's instructions.
(§3) Briefly, the kinase reactions were performed in 384-well white plates (Greiner Bio-One GmbH, Frickenhausen). Each well was loaded with 0.1 μl of test compounds and 2.5 μl of 2× reaction buffer (40 mM Tris pH7.5, 0.5 mM EGTA, 0.5 mM Na3VO4, 5 mM β-glycerophosphate, 0.1 mg/ml BSA, 1 mM DTT), containing 50 μM PI and PS substrates (L-α-phosphatidylinositol sodium salt and L-α-phosphatidyl-L-serine, Sigma-Aldrich, St. Louis Mo.) and the PI3K recombinant proteins (PI3Kγ 0.25 ng/μl, PI3Kδ 1 ng/μl, PI3Kα 0.125 ng/μl, PI3Kβ 1 ng/μl).
(§4) The reactions were started by adding 2.5 μl of 2×ATP solution to each well (final concentrations: PI3Kγ ATP 30 μM; PI3Kδ ATP 80 μM; PI3KαATP 50 μM; PI3Kβ ATP 100 μM) and incubated for 60 min at room temperature. Subsequently, each kinase reaction was incubated for 40 min with 5 μl ADP-Glo™ Reagent, allowing depletion of unconsumed ATP. Then, the Kinase Detection Reagent (10 μl) was added in each well to convert ADP to ATP and to allow the newly synthesized ATP to be measured using a luciferase/luciferin reaction. Following 60 min incubation, the luminescence signal was measured using a Wallac EnVision® multilabel reader (PerkinElmer, Waltham Mass.).
(§5) Curve fitting and IC50 calculation were carried out using a four-parameter logistic model in XLfit (IDBS, Guilford, UK) for Microsoft Excel (Microsoft, Redmont, Wash.).
A general note: ADP-Glo turns the ADP formed in a reaction into a luminescent signal.

For another experiment, the target named is T2, PI3Kδ (Homo sapiens, UniProt O00329).
T2 construct: purchased Millipore Ltd (Billerica, Mass.)
In words: In vitro determination of the PI3K enzyme inhibitory activity in the cell free assay (ADP-Glo Kinase Assay), PI3Kδ. Conditions: ATP 80 μM, read-out: PI3K delta inhibition. The method, then:
as §1, §2, §3, §4, §5

Another experiment concerns the target T3, PI3Kβ (Homo sapiens, UniProt P42338).
T3 construct: purchased Millipore Ltd (Billerica, Mass.)
In words: In vitro determination of the PI3K enzyme inhibitory activity in the cell free assay (ADP-Glo Kinase Assay), PI3Kβ. Particulars: ATP 100 μM, read-out: PI3K beta inhibition. How it is done: as §1, §2, §3, §4, §5

A further experiment has as its target T4, PI3Kγ (Homo sapiens, UniProt P48736).
T4 construct: purchased Millipore Ltd (Billerica, Mass.)
In words: In vitro determination of the PI3K enzyme inhibitory activity in the cell free assay (ADP-Glo Kinase Assay), PI3Kγ. Conditions: ATP 30 μM, read-out: PI3K gamma inhibition. The method, then:
as §1, §2, §3, §4, §5

pIC50: −log10 of the molar value. Bounds are passed on as bounds.

T4 sequence (P48736 whole entry): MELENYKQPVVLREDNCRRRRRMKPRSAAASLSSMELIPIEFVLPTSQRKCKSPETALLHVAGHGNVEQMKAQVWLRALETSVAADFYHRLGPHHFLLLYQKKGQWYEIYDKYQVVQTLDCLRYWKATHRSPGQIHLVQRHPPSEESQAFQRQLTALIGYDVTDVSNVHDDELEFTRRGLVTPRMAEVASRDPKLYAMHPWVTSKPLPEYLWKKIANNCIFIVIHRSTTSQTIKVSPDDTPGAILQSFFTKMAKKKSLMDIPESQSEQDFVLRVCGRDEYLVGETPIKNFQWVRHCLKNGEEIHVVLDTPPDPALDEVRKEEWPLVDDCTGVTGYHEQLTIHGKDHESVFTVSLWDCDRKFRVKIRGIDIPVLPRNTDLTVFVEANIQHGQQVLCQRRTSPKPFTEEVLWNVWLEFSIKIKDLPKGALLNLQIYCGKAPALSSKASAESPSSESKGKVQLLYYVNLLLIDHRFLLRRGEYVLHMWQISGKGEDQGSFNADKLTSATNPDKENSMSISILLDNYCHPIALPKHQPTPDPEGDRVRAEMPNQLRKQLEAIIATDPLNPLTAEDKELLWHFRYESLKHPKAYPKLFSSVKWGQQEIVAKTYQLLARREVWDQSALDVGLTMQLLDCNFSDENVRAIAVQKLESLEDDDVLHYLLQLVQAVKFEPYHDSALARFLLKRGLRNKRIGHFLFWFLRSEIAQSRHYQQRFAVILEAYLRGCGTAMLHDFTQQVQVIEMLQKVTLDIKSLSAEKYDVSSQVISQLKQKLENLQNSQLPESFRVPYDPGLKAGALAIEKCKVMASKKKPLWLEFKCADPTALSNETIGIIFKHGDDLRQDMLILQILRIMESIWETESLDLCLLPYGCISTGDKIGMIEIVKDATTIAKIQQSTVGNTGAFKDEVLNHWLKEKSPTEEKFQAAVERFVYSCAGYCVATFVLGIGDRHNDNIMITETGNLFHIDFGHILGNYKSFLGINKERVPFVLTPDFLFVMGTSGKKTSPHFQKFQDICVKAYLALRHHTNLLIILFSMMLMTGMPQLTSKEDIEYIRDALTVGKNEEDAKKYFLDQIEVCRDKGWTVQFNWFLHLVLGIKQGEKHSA
T3 sequence (P42338 whole entry): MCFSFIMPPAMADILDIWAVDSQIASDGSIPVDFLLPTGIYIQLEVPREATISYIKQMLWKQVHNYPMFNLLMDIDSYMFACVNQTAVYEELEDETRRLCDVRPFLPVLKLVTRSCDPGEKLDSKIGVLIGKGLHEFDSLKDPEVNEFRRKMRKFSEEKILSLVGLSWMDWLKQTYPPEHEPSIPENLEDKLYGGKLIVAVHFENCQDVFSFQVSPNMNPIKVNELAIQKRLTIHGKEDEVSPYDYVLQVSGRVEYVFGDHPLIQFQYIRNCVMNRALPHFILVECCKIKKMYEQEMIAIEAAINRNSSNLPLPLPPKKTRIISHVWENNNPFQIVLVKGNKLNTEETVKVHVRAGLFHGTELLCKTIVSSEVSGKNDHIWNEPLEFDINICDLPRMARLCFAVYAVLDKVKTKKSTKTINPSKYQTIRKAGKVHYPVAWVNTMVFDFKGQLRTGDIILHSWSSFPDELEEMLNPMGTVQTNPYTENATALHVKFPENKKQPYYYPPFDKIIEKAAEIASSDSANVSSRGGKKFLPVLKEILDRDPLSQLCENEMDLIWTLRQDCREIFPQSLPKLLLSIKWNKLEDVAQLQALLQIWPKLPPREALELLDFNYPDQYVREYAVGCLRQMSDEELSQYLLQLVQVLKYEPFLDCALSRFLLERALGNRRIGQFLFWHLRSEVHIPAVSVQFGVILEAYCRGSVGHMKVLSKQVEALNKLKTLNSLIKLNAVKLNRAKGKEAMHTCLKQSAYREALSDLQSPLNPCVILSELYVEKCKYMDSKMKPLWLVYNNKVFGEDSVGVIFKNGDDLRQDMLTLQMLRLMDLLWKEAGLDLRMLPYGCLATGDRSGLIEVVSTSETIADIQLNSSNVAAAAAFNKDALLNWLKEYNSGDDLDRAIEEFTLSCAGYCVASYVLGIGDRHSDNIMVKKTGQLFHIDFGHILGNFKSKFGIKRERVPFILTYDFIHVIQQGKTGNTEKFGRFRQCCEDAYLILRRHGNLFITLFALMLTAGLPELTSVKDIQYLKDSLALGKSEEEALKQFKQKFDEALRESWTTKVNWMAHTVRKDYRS
T3 sequence (P27986 whole entry partner): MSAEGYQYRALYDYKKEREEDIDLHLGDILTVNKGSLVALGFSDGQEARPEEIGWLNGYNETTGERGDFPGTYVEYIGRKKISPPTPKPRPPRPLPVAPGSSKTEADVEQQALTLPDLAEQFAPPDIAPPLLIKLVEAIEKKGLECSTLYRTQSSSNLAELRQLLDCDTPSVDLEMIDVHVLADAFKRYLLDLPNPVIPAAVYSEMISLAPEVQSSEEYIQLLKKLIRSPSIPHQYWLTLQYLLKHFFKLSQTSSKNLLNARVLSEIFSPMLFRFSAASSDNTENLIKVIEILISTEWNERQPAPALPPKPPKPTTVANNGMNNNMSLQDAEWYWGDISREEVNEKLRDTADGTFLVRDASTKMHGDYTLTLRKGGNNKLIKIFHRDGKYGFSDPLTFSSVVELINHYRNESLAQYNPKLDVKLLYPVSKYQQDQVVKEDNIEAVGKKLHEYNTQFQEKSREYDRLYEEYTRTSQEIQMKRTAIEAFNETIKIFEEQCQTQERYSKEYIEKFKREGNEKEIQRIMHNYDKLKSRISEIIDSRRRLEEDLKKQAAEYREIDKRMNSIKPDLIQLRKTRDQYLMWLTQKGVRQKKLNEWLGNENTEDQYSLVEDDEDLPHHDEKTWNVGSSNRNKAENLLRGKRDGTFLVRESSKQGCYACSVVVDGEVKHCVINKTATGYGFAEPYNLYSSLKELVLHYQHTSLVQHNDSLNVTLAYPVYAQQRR
T1 sequence (P42336 whole entry): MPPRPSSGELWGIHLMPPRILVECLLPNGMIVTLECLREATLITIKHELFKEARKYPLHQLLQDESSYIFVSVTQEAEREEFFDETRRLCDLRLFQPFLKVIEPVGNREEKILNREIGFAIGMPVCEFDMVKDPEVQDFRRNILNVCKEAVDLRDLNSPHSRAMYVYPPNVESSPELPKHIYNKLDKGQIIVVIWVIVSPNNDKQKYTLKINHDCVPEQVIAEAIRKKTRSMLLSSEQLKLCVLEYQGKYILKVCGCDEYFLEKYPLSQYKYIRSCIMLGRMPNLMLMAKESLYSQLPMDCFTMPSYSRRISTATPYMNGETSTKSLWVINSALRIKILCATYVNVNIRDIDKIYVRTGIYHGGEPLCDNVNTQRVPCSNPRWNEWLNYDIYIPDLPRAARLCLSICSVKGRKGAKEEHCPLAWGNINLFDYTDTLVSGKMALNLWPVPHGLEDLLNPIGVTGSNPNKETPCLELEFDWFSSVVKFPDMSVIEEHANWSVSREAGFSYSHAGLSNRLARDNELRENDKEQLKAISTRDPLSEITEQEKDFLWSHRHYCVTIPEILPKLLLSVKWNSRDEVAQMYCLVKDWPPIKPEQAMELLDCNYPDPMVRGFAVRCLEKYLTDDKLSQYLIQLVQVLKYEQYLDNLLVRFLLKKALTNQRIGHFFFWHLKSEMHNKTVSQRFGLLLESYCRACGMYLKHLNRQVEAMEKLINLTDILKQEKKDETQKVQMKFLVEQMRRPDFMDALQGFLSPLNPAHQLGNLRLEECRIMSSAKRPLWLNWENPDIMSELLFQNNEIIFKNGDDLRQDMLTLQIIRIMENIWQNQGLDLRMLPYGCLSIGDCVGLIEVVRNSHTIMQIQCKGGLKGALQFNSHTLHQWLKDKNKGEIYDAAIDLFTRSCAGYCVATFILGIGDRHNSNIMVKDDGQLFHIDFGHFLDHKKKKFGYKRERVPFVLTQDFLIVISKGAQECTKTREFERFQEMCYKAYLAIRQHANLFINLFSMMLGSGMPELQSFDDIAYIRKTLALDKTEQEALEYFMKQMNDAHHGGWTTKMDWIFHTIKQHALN
T1 sequence (P27986 whole entry partner): as the sequence (P27986 whole entry partner) above
T2 sequence (O00329 whole entry): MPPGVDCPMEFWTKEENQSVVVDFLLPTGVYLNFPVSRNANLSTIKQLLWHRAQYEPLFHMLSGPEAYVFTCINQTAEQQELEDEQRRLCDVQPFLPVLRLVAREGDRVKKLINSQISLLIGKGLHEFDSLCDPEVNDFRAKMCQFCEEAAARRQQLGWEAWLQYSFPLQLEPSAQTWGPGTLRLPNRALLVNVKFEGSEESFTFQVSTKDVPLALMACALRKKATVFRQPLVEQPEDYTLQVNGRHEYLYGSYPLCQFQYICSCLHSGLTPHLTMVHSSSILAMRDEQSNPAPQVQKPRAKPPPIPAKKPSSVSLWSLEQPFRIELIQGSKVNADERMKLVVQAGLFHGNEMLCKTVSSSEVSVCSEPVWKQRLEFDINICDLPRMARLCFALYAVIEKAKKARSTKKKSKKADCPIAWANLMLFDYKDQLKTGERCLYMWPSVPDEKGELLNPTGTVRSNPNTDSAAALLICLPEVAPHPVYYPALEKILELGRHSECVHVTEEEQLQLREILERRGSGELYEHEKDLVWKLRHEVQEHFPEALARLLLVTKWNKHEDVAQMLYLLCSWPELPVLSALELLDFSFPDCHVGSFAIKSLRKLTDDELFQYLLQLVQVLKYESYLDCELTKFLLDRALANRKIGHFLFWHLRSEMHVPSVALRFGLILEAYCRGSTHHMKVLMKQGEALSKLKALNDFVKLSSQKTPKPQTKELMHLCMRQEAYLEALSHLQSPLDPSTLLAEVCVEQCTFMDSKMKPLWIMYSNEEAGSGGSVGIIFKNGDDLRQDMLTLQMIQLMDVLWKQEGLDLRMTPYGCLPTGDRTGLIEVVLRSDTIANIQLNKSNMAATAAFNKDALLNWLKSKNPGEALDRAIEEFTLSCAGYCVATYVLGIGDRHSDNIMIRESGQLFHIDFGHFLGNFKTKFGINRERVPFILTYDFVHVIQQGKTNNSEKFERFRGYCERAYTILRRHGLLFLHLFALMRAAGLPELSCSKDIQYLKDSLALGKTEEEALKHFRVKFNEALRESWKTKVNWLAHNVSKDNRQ
T2 sequence (P27986 whole entry partner): as the sequence (P27986 whole entry partner) above

For the molecule `Nc1ncnc2c1ncn2Cc1cc2ccccn2c1-c1cccc(F)c1` [Example 4, 9-{[3-(3-fluorophenyl)indolizin-2-yl]methyl}-9H-purin-6-amine], the pIC50 on PI3Kα was less than 6.00; at PI3Kδ, 6.00 to 8.00; on PI3Kβ, less than 6.00; at PI3Kγ it was less than 6.00.

In the case of `Nc1ncn(Cc2cc3ccccn3c2-c2cccc(F)c2)c2ncnc1-2` [Example 5, 3-{[3-(3-fluorophenyl)indolizin-2-yl]methyl}-3H-purin-6-amine], the pIC50 at PI3Kα, at PI3Kδ, at PI3Kβ and on PI3Kγ was less than 6.00 in each case.

With `Nc1ncnc2c1ncn2Cc1cc2ccccn2c1-c1ccccc1F` [Example 6, 9-{[3-(2-fluorophenyl)indolizin-2-yl]methyl}-9H-purin-6-amine], the pIC50 on PI3Kα, on PI3Kδ, at PI3Kβ and on PI3Kγ was less than 6.00 each time.

For `Cc1ccccc1-c1c(Cn2cnc3c(N)ncnc32)cc2ccccn12` [Example 7, 9-{[3-(2-methylphenyl)indolizin-2-yl]methyl}-9H-purin-6-amine], the pIC50 at PI3Kα, on PI3Kδ, at PI3Kβ and on PI3Kγ was less than 6.00 each time.

For the molecule `Cc1ccccc1-c1c(Cn2cnc(N)c3ncnc2-3)cc2ccccn12` [Example 8, 3-{[3-(2-methylphenyl)indolizin-2-yl]methyl}-3H-purin-6-amine], the pIC50 at PI3Kα, at PI3Kδ, at PI3Kβ and at PI3Kγ was less than 6.00 each time.

Regarding `Nc1ncnc2c1ncn2Cc1cc2ccccn2c1` [Example 9, 9-(indolizin-2-ylmethyl)-9H-purin-6-amine], the pIC50 at PI3Kα, at PI3Kδ, on PI3Kβ and at PI3Kγ was less than 6.00 in each case.

For the molecule `Nc1ncnc2c1ncn2Cc1cn2ccccc2c1-c1ccccc1` [Example 10, 9-[(1-phenylindolizin-2-yl)methyl]-9H-purin-6-amine], the pIC50 at PI3Kα, on PI3Kδ, at PI3Kβ and on PI3Kγ was less than 6.00 each time.

`Nc1ncnc2c1ncn2Cc1cn2ccccc2c1-c1cccc(F)c1` [Example 11, 9-{[1-(3-fluorophenyl)indolizin-2-yl]methyl}-9H-purin-6-amine]: the pIC50 on PI3Kα, on PI3Kδ, on PI3Kβ and on PI3Kγ was less than 6.00 each time.

In the case of `Cc1ccccc1-c1c(Cn2cnc3c(N)ncnc32)cn2ccccc12` [Example 12, 9-{[1-(2-methylphenyl)indolizin-2-yl]methyl}-9H-purin-6-amine], the pIC50 at PI3Kα, on PI3Kδ, on PI3Kβ and on PI3Kγ was less than 6.00 each time.

As to `c1ccc(-c2c(CNc3ncnc4[nH]cnc34)cc3ccccn23)cc1` [Example 13, N-[(3-phenylindolizin-2-yl)methyl]-9H-purin-6-amine], the pIC50 on PI3Kα, at PI3Kδ, on PI3Kβ and on PI3Kγ was less than 6.00 in each case.

For the molecule `c1ccc(-c2c(CNc3ncnc4[nH]cnc34)cc3ccccn23)nc1` [Example 14, N-{[3-(pyridin-2-yl)indolizin-2-yl]methyl}-9H-purin-6-amine], the pIC50 at PI3Kα, at PI3Kδ, on PI3Kβ and on PI3Kγ was less than 6.00 throughout.

Take `Fc1cccc(-c2c(CNc3ncnc4[nH]cnc34)cc3ccccn23)c1` [Example 15, N-{[3-(3-fluorophenyl)indolizin-2-yl]methyl}-9H-purin-6-amine]: the pIC50 at PI3Kα, at PI3Kδ, on PI3Kβ and at PI3Kγ was less than 6.00 throughout.

With `Fc1ccccc1-c1c(CNc2ncnc3[nH]cnc23)cc2ccccn12` [Example 16, N-{[3-(2-fluorophenyl)indolizin-2-yl]methyl}-9H-purin-6-amine], the pIC50 at PI3Kα, at PI3Kδ, on PI3Kβ and at PI3Kγ was less than 6.00 in each case.

As for `c1ccc(-c2c(CNc3ncnc4[nH]cnc34)cn3ccccc23)cc1` [Example 17, N-[(1-phenylindolizin-2-yl)methyl]-9H-purin-6-amine], the pIC50 on PI3Kα, at PI3Kδ, on PI3Kβ and on PI3Kγ was less than 6.00 in each case.

In the case of `Fc1cccc(-c2c(CNc3ncnc4[nH]cnc34)cn3ccccc23)c1` [Example 18, N-{[1-(3-fluorophenyl)indolizin-2-yl]methyl}-9H-purin-6-amine], the pIC50 is less than 6.00 at PI3Kα, 6.00 to 8.00 on PI3Kδ, less than 6.00 at PI3Kβ and less than 6.00 on PI3Kγ.

Turning to `Cc1ccccc1-c1c(CNc2ncnc3[nH]cnc23)cn2ccccc12` [Example 19, N-{[1-(2-methylphenyl)indolizin-2-yl]methyl}-9H-purin-6-amine], the pIC50 at PI3Kα, on PI3Kδ, at PI3Kβ and at PI3Kγ was less than 6.00 throughout.

With `c1ccc(-c2c(CNc3ncnc4[nH]cnc34)cn3ccccc23)nc1` [Example 20, N-{[1-(pyridin-2-yl)indolizin-2-yl]methyl}-9H-purin-6-amine], the pIC50 at PI3Kα is less than 6.00; on PI3Kδ it was 6.00 to 8.00; on PI3Kβ, less than 6.00; on PI3Kγ it was less than 6.00.

`c1ccn2cc(CNc3ncnc4[nH]cnc34)cc2c1` [Example 21, N-(indolizin-2-ylmethyl)-9H-purin-6-amine]: the pIC50 at PI3Kα was less than 6.00; at PI3Kδ, 6.00 to 8.00; at PI3Kβ, 6.00 to 8.00; on PI3Kγ it was less than 6.00.

On to `N#Cc1c(N)ncnc1NCc1cc2ccccn2c1-c1ccccc1` [Example 22, 4-amino-6-{[(3-phenylindolizin-2-yl)methyl]amino}pyrimidine-5-carbonitrile], for which the pIC50 at PI3Kα is less than 6.00; on PI3Kδ, 6.00 to 8.00; on PI3Kβ it was less than 6.00; at PI3Kγ, less than 6.00.

Regarding `N#Cc1c(N)ncnc1NCc1cc2ccccn2c1-c1ccccn1` [Example 23, 4-amino-6-({[3-(pyridin-2-yl)indolizin-2-yl]methyl}amino)pyrimidine-5-carbonitrile], the pIC50 on PI3Kα was less than 6.00; on PI3Kδ, 6.00 to 8.00; at PI3Kβ, less than 6.00; at PI3Kγ, less than 6.00.

On to `N#Cc1c(N)ncnc1NCc1cc2ccccn2c1-c1cccc(F)c1` [Example 24, 4-amino-6-({[3-(3-fluorophenyl)indolizin-2-yl]methyl}amino)pyrimidine-5-carbonitrile], for which the pIC50 is less than 6.00 at PI3Kα, 6.00 to 8.00 at PI3Kδ, less than 6.00 on PI3Kβ and less than 6.00 on PI3Kγ.

Take `N#Cc1c(N)ncnc1NCc1cc2ccccn2c1-c1ccccc1F` [Example 25, 4-amino-6-({[3-(2-fluorophenyl)indolizin-2-yl]methyl}amino)pyrimidine-5-carbonitrile]: the pIC50 on PI3Kα was less than 6.00; at PI3Kδ, 6.00 to 8.00; on PI3Kβ it was less than 6.00; at PI3Kγ, less than 6.00.

In the case of `Cc1ccccc1-c1c(CNc2ncnc(N)c2C#N)cc2ccccn12` [Example 26, 4-amino-6-({[3-(2-methylphenyl)indolizin-2-yl]methyl}amino)pyrimidine-5-carbonitrile], the pIC50 was less than 6.00 at PI3Kα, 6.00 to 8.00 at PI3Kδ, less than 6.00 on PI3Kβ and less than 6.00 on PI3Kγ.

Consider `N#Cc1c(N)ncnc1NCc1cn2ccccc2c1-c1ccccc1` [Example 27, 4-amino-6-{[(1-phenylindolizin-2-yl)methyl]amino}pyrimidine-5-carbonitrile], for which the pIC50 at PI3Kα, on PI3Kδ, at PI3Kβ and at PI3Kγ was less than 6.00 in each case.

`N#Cc1c(N)ncnc1NCc1cn2ccccc2c1-c1cccc(F)c1` [Example 28, 4-amino-6-({[1-(3-fluorophenyl)indolizin-2-yl]methyl}amino)pyrimidine-5-carbonitrile]: the pIC50 on PI3Kα was less than 6.00; at PI3Kδ it was 6.00 to 8.00; at PI3Kβ, less than 6.00; on PI3Kγ, less than 6.00.
